Measured values: US20250032487A1, “DISSOLUTION TEST” (JANSSEN SCIENCES IRELAND UNLIMITED COMPANY, priority 2021, published 2025)

Experiment: In vitro dissolution test, paddle apparatus (USP type 2), polysorbate 20 in 0.05 M sodium phosphate buffer pH 7.4
Type: physicochemical
Description: The dissolution of the suspensions was tested using a paddle apparatus (USP type 2, Ph. Eur, JP) with a rotation speed of 50 rpm in 900 mL 6.0% w/v polysorbate 20 in 0.05 M sodium phosphate buffer pH 7.4 at 5° C. The sample amount corresponds to 18 mg rilpivirine.
After 360 minutes the temperature was increased to 37° C. and maintained for 60 minutes to simulate an infinity time point. The samples taken after the temperature infinity time points are labelled as 420 minutes.
The quantity of dissolved drug substance was determined by a gradient ultra-high performance liquid chromatographic (UHPLC) method with UV detection at 280 nm.
The dissolution of the three rilpivirine suspensions in water was performed using Paddle Apparatus (USP type 2, Ph.Eur., JP.) at 50 rpm in 900 mL of 6.0% w/v Polysorbate 20 in 0.05 M Sodium Phosphate buffer pH 7.4, at 5.0±0.5° C. An amount of 64.98 mg (=0.06 mL×1.083 g/mL (the theoretical density of the suspension))±5% of homogeneous suspension of rilpivirine (corresponding to 18±0.9 mg of rilpivirine) was added.
The determination of the quantity of rilpivirine present in the dissolution samples is based upon a gradient ultra-high performance liquid chromatographic (UHPLC) method with UV detection at 280 nm.
The dissolution of a suspension of nanoparticulate rilpivirine having a Dv50 of ˜200 nm was tested using the method of Example 1 but with different temperatures of the dissolution medium (37° C., 25° C., 15° C., and 5° C.).
The dissolution of a suspension of nanoparticulate rilpivirine having a Dv50 of 218 nm was tested using the method of Example 1 but with different concentrations of the surfactant (1-6% w/v polysorbate 20).

[1] = Example 4, nanoparticulate suspension Dv50 ~200 nm, 5° C., 6.0% w/v polysorbate 20, pH 7.4
[2] = Example 5, nanoparticulate suspension Dv50 218 nm, 6% polysorbate 20, 5° C., pH 7.4

## Cc1cc(/C=C/C#N)cc(C)c1Nc1ccnc(Nc2ccc(C#N)cc2)n1 [rilpivirine, 4-[[4-[[4-[(1E)-2-cyanoethenyl]-2,6-dimethylphenyl]amino]-2-pyrimidinyl]amino]benzonitrile]
[1]
  % dissolved after 6 hours: Over 85%
  % dissolved at 5 minutes: less than 30%
Example 4, nanoparticulate suspension Dv50 ~200 nm, 37° C., 6.0% w/v polysorbate 20, pH 7.4, 50 rpm, 900 mL
  time until fully dissolved: around 10 minutes
Example 5, 6% polysorbate 20 method, suspension Dv50 218 nm, 5° C.
  delta % dissolved (difference between lowest and highest % dissolved in the dissolution profile): approximately 80%
[2]
  % dissolved after 360 minutes: more than 85%
  initial release, % dissolved: below 20%
